Eleven compounds from US4367287A, “Process of producing antibiotic AR-5 complex” (Schering Corporation, priority 1981, dated 1983) can be followed below.

One data set deals with M. polytrota. Kind of data set: Antibiotic susceptibility of producing strain. It counts as cell-based, Micromonospora polytrota. The following applies: for Growth in the presence of 50 mcg/ml antibiotic: M. polytrota; for sensitivity of M. polytrota: concentration not given. As to the method:
Test antibiotics were dissolved in the appropriate solvent at a concentration based on an activity of 1000 mcg/ml. Stock solutions were diluted in sterile distilled water to a final concentration of 500 mcg/ml and filter sterilized ([…] filters, Millipore Corporation). To 10 ml of the sterile antibiotic solutions, 90 ml of melted agar consisting of yeast extract, 10 g; dextrose, 10 g; agar, 15 g; tap water, 1000 ml; […] cooled to 45° C. was added, and 20 ml of the resulting mixture was aseptically pipetted into sterile petri dishes (100×150 mm). The final concentration of each antibiotic in the agar was 50 mcg/ml.

Data set [1] deals with Antibiotic AR-5 Resistant strains. Put plainly: In vivo mouse protection test, Antibiotic AR-5 resistant strains. Conditions: read-out: Mean PD50. The arrangement: species or system male (Carworth CF-1) mice. As to the method: (§1) In vivo mouse protection tests were performed in male (Carworth CF-1) mice weighing 18-20 g each. Infection was with about 10^7 organisms per mouse or sufficient inocula to cause death of control groups 24 to 48 hours after infection. The infecting organisms included strains of Staphylococcus Enterococcus, β-hemolytic Streptococcus and E. coli.

In data set [2] the test system is Antibiotic AR-5 Sensitive strains. Kind of data set: In vivo mouse protection test, Antibiotic AR-5 sensitive strains. The arrangement: species or system male (Carworth CF-1) mice. Conditions: for ED50: Mus musculus, Antibiotic AR-5 sensitive strains, number of strains averaged in parentheses, read-out: Mean PD50; for oral potency relative to erythromycin and rosaramicin (fold more potent): in vivo PD50, in general. As to the method:
as §1

A short description of a further data set: Acute toxicity in mice. Conditions: mouse, in vivo, male CF-1 mice, survivors at 24 and 48 hours. As to the method:
The acute toxicity determinations were carried out with groups of male (Carworth CF-1) mice weighing 18-20 g. LD50 values […] the dose that was lethal to 50% of the mice) were calculated by probit analysis based on the number of survivors at 24 and 48 hours after dosing.

A short description of data set [3]: Serum levels of the antibiotics. The following applies: mice, rats and dogs. It counts as in vivo. As to the method:
The serum levels of the respective antibiotics were measured in mice, rats and dogs.

Where two headings read alike, the source gives them in different places.

In the case of `CCC[C@@H]1C[C@@H](C(=O)N[C@@H]([C@H]2O[C@H](SC)[C@H](O)[C@@H](O)[C@H]2O)[C@@H](C)O)N(C)C1` [Lincomycin], in the data set with M. polytrota, the “Growth in the presence of 50 mcg/ml antibiotic” value (“Growth in the presence” for short) was “grows”.

Take `CC[C@H]1OC(=O)[C@H](C)[C@@H](O[C@H]2C[C@@](C)(OC)[C@@H](O)[C@H](C)O2)[C@H](C)[C@@H](O[C@@H]2O[C@H](C)C[C@H](N(C)C)[C@H]2O)[C@](C)(O)C[C@@H](C)C(=O)[C@H](C)[C@@H](O)[C@]1(C)O` [E, Erythromycin, reference compound]: the ED50 in data set [1] (po) turned out to be 400 mg/kg; in data set [1] (sc) it was 100 mg/kg; in data set [2] (sc) it was 13.3 mg/kg; in data set [2] (oral), 135 mg/kg. Besides, the median lethal dose (LD50) in the data set “Acute toxicity in mice” (ip) came out at 355 mg/kg; in “Acute toxicity in mice” (iv) it was 260 mg/kg.

For the compound `CC[C@H]1OC(=O)C[C@@H](O)[C@H](C)[C@@H](O[C@@H]2O[C@H](C)C[C@H](N(C)C)[C@H]2O)[C@@H](CC=O)C[C@@H](C)C(=O)/C=C/[C@]2(C)O[C@H]2[C@@H]1C` [F, Rosaramicin, reference compound], the “sensitivity of M. polytrota” value in the data set on M. polytrota is recorded as “exhibits sensitivity”. Moreover, the ED50 is 400 mg/kg in data set [1] (po), 100 mg/kg in data set [1] (sc), 8.3 mg/kg in data set [2] (sc) and 181 mg/kg in data set [2] (oral). The LD50 in “Acute toxicity in mice” (ip) worked out at 260 mg/kg; in the data set “Acute toxicity in mice” (iv), 175 mg/kg; in “Acute toxicity in mice” (oral), 1300 mg/kg.

As for `NC[C@H]1O[C@H](O[C@H]2[C@H](O)[C@@H](O[C@H]3O[C@H](CO)[C@@H](O)[C@H](N)[C@H]3O)[C@H](N)C[C@@H]2N)[C@H](O)[C@@H](O)[C@@H]1O` [Kanamycin], the “Growth in the presence” value in the data set on M. polytrota is listed as “grows”.

With `CCC1OC(=O)/C=C/C(C)C(OC2OC(C)CC(N(C)C)C2O)C(C)CC(C)C(=O)/C=C/C2OC2C1COC1OC(C)C(O)C(OC)C1OC` (stereo not drawn) [A, Antibiotic AR-5 component 1], the ED50 in data set [1] (po) is 100 mg/kg; in data set [1] (sc), 100 mg/kg; in data set [2] (sc) it was 4 mg/kg; in data set [2] (oral) it was 4.1 mg/kg. In addition, in data set [2] (oral), the “oral potency relative to erythromycin and rosaramicin (fold more potent)” value is 30-40 fold. Also, the median lethal dose (LD50) in “Acute toxicity in mice” (ip) came to 310 mg/kg; in “Acute toxicity in mice” (iv), 140 mg/kg. Also, the “duration of therapeutic serum levels” value in data set [3] is reported as “produces therapeutic serum levels of greater duration”.

With `O=C(N[C@H](CO)[C@H](O)c1ccc([N+](=O)[O-])cc1)C(Cl)Cl` [Chloramphenicol], the “sensitivity of M. polytrota” value with M. polytrota was “exhibits sensitivity”.

Take `CCC[C@@H]1C[C@@H](C(=O)N[C@@H]([C@H]2O[C@H](SC)[C@H](O)[C@@H](O)[C@H]2O)[C@H](C)Cl)N(C)C1` [Clindamycin]: the “Growth in the presence” value in the data set on M. polytrota is “grows”.

As for `CN[C@@H]1[C@@H](O)[C@@H](O[C@@H]2[C@@H](O)[C@H](O[C@H]3OC(CN)=CC[C@H]3N)[C@@H](N)C[C@H]2N)OC[C@]1(C)O` [Sisomicin], the “Growth in the presence” value with M. polytrota is “grows”.

As for `CCC1OC(=O)/C=C/C(C)C(OC2OC(C)CC(N(C)C)C2O)C(C)CC(C)C(=O)/C=C/C=C/C1COC1OC(C)C(O)C(OC)C1OC` (stereo not drawn) [B, 12,13-desepoxy AR-5 component 1], the ED50 in data set [1] (po) stood at 100 mg/kg; in data set [1] (sc) it was 100 mg/kg; in data set [2] (sc), 2.5 mg/kg; in data set [2] (oral), 3.8 mg/kg. In addition, the “oral potency relative to erythromycin and rosaramicin (fold more potent)” value in data set [2] (oral) is given as 30-40 fold. Further, the LD50 in “Acute toxicity in mice” (ip) turned out to be 275 mg/kg; in the data set “Acute toxicity in mice” (iv) it was 160 mg/kg.

Turning to `CCC1OC(=O)/C=C/C(C)C(OC2OC(C)CC(N(C)C)C2O)C(C)CC(C)C(=O)/C=C/C2OC2C1(O)COC1OC(C)C(O)C(OC)C1OC` (stereo not drawn) [C, Antibiotic AR-5 component 2], the ED50 was 100 mg/kg in data set [1] (po), 100 mg/kg in data set [1] (sc), 5.1 mg/kg in data set [2] (sc) and 35.8 mg/kg in data set [2] (oral). In addition, the LD50 amounted to 610 mg/kg in “Acute toxicity in mice” (ip) and 310 mg/kg in “Acute toxicity in mice” (iv). The “time of peak serum levels” value in data set [3] (versus the other antibiotics tested) is “produces peak serum levels earlier than any of the other antibiotics tested”.

As to Gentamicin, the “Growth in the presence” value with M. polytrota is listed as “grows”.

The term LD50 denotes the dose expected to kill half of the subjects tested. A high value points to lower toxicity.
